Drawing on patent US11203613B2, “Peptidomimetic proteasome inhibitors” (CORNELL UNIVERSITY, priority 2017, dated 2021), this text covers IC50 for 27 molecules.

This experiment has as its target Human Constitutive (Hu C-20S) β5 Active Subunit (Homo sapiens, UniProt P28074). Nature of the experiment: IC50 determination, human constitutive 20S proteasome β5c (suc-LLVY-AMC hydrolysis). The note with it: Table 3; IC50 against human constitutive β5 active subunit; read-out: Hu-C20S β5. Format: biochemical.
For `CC[C@H]1CCCCN1C(=O)C[C@H](Nc1nc(Cc2ccc(F)cc2)no1)C(=O)N[C@@H](C)c1nc2c(F)cccc2[nH]1` [CEN-27, (S)-4-((S)-2-Ethylpiperidin-1-yl)-N—((S)-1-(4-fluoro-1H-benzo[d]imidazol-2-yl)ethyl)-2-((3-(4-fluorobenzyl)-1,2,4-oxadiazol-5-yl)amino)-4-oxobutanamide], the IC50 is 1.4 µM.

With `CC[C@H]1CCCCN1C(=O)C[C@H](NC(=O)CCC(C)C)C(=O)N[C@@H](C)c1nc2ccccc2[nH]1` [CEN-28, N—((S)-1-(((S)-1-(1H-Benzo[d]imidazol-2-yl)ethyl)amino)-4-((S)-2-ethylpiperidin-1-yl)-1,4-dioxobutan-2-yl)-4-methylpentanamide], the IC50 was found to be 14.8 µM.

With `CC[C@H]1CCCCN1C(=O)C[C@H](NC(=O)CCC(C)(C)C)C(=O)N[C@@H](C)c1nc2ccccc2[nH]1` [CEN-29, N—((S)-1-(((S)-1-(1H-Benzo[d]imidazol-2-yl)ethyl)amino)-4-((S)-2-ethylpiperidin-1-yl)-1,4-dioxobutan-2-yl)-4,4-dimethylpentanamide], the IC50 was determined as 6.9 µM.

For `Cc1ncc(C(=O)N[C@@H](CC(=O)N2CCCC[C@@H]2C)C(=O)N[C@@H](C)c2nc3c(F)cccc3[nH]2)s1` [CEN-30, N—((S)-1-(((S)-1-(4-Fluoro-1H-benzo[d]Imidazol-2-yl)ethyl)amino)-4-((S)-2-methylpiperidin-1-yl)-1,4-dioxobutan-2-yl)-2-methylthiazole-5-carboxamide], the IC50 was 4.5 µM.

As for `CC(C)CCC(=O)N[C@@H](CC(=O)N1CCCC[C@@H]1C)C(=O)NCc1nc2ccccc2[nH]1` [CEN-31, N—((S)-1-(((1H-Benzo[d]imidazol-2-yl)methyl)amino)-4-((S)-2-methylpiperidin-1-yl)-1,4-dioxobutan-2-yl)-4-methylpentanamide], the IC50 was 17.6 µM.

In the case of `CC(C)CCC(=O)N[C@@H](CC(=O)N1CCCC[C@@H]1C)C(=O)N[C@@H](C)c1nc2ccccc2[nH]1` [CEN-32, N—((S)-1-(((S)-1-(1H-Benzo[d]imidazol-2-yl)ethyl)amino)-4-((S)-2-methylpiperidin-1-yl)-1,4-dioxobutan-2-yl)-4-methylpentanamide], the IC50 amounted to 23.5 µM.

For the molecule `C[C@H](NC(=O)[C@H](CC(=O)N1CCC[C@@H]1C)NC(=O)CCC(C)(C)C)c1nc2ccccc2[nH]1` [CEN-33, N—((S)-1-(((S)-1-(1H-Benzo[d]imidazol-2-yl)ethyl)amino)-4-((S)-2-methylpyrrolidin-1-yl)-1,4-dioxobutan-2-yl)-4,4-dimethylpentanamide], the IC50 was 16.5 µM.

Take `CC(C)CCC(=O)N[C@@H](CC(=O)N1CCCC[C@@H]1C)C(=O)N[C@H](C)c1nc2ccccc2[nH]1` [CEN-34, N—((S)-1-(((R)-1-(1H-Benzo[d]imidazol-2-yl)ethyl)amino)-4-((S)-2-methylpiperidin-1-yl)-1,4-dioxobutan-2-yl)-4-methylpentanamide]: the IC50 came out at 15.6 µM.

For the molecule `Cc1cc(C(=O)N[C@@H](CC(=O)N2CCCC[C@@H]2C)C(=O)NC(C)c2nc3ccccc3[nH]2)no1` (stereo partly drawn) [CEN-35, N-((2S)-1-((1-(1H-Benzo[d]imidazol-2-yl)ethyl)amino)-4-((S)-2-methylpiperidin-1-yl)-1,4-dioxobutan-2-yl)-5-methylisoxazole-3-carboxamide], the IC50 amounted to 19.6 µM.

On to `Cc1cc(C(=O)N[C@@H](CC(=O)N2CCCC[C@@H]2C)C(=O)N[C@@H](C)c2nc3ccccc3[nH]2)no1` [CEN-36, N—((S)-1-(((S)-1-(1H-Benzo[d]imidazol-2-yl)ethyl)amino)-4-((S)-2-methylpiperidin-1-yl)-1,4-dioxobutan-2-yl)-5-methylisoxazole-3-carboxamide], for which the IC50 was 17.5 µM.

Take `C[C@@H](NC(=O)[C@H](CC(=O)N1CCCC[C@@H]1C)NC(=O)CCC(C)(C)C)c1nc2ccccc2[nH]1` [CEN-37, N—((S)-1-(((R)-1-(1H-Benzo[d]imidazol-2-yl)ethyl)amino)-4-((S)-2-methylpiperidin-1-yl)-1,4-dioxobutan-2-yl)-4,4-dimethylpentanamide]: the IC50 stood at 17.3 µM.

Consider `C[C@H](NC(=O)[C@H](CC(=O)N1CCCC[C@@H]1C)NC(=O)C1CC(C)(C)C1)c1nc2c(F)cccc2[nH]1` [CEN-39, N—((S)-1-(((S)-1-(4-Fluoro-1H-benzo[d]Imidazol-2-yl)ethyl)amino)-4-((S)-2-methylpiperidin-1-yl)-1,4-dioxobutan-2-yl)-3,3-dimethylcyclobutane-1-carboxamide], for which the IC50 came to 7.6 µM.

In the case of `CC(C)C1CC1C(=O)N[C@@H](CC(=O)N1CCCC[C@@H]1C)C(=O)N[C@@H](C)c1nc2c(F)cccc2[nH]1` (stereo partly drawn) [CEN-40, N—((S)-1-(((S)-1-(4-Fluoro-1H-benzo[d]Imidazol-2-yl)ethyl)amino)-4-((S)-2-methylpiperidin-1-yl)-1,4-dioxobutan-2-yl)-2-isopropylcyclopropane-1-carboxamide], the IC50 worked out at 2.7 µM.

Regarding `C[C@H](NC(=O)[C@H](CC(=O)N1CCCC[C@@H]1C)NC(=O)CCC(C)(C)C)c1nc2c(F)cccc2[nH]1` [CEN-41, N—((S)-1-(((S)-1-(4-Fluoro-1H-benzo[d]Imidazol-2-yl)ethyl)amino)-4-((S)-2-methylpiperidin-1-yl)-1,4-dioxobutan-2-yl)-4,4-dimethylpentanamide], the IC50 was determined as 4.8 µM.

For the molecule `C[C@H](NC(=O)[C@H](CC(=O)N1CCCC[C@@H]1C)NC(=O)C1CC2(CCC2)C1)c1nc2c(F)cccc2[nH]1` [CEN-42, N—((S)-1-(((S)-1-(4-Fluoro-1H-benzo[d]imidazol-2-yl)ethyl)amino)-4-((S)-2-methylpiperidin-1-yl)-1,4-dioxobutan-2-yl)spiro[3.3]heptane-2-carboxamide], the IC50 came to 27.4 µM.

With `C[C@H](NC(=O)[C@H](CC(=O)N1CCCC[C@@H]1C)NC(=O)C1CC2(COC2)C1)c1nc2cccc(F)c2[nH]1` [CEN-43, N—((S)-1-(((S)-1-(7-Fluoro-1H-benzo[d]imidazol-2-yl)ethyl)amino)-4-((S)-2-methylpiperidin-1-yl)-1,4-dioxobutan-2-yl)-2-oxaspiro[3.3]heptane-6-carboxamide], the IC50 was 13.8 µM.

With `C[C@@H](NC(=O)[C@H](CC(=O)N1CCCC[C@@H]1C)NC(=O)CC1CC(C)(C)C1)c1nc2c(F)cccc2[nH]1` [CEN-44, (S)-2-(2-(3,3-Dimethylcyclobutyl)acetamido)-N—((R)-1-(4-fluoro-1H-benzo[d]imidazol-2-yl)ethyl)-4-((S)-2-methylpiperidin-1-yl)-4-oxobutanamide], the IC50 amounted to 0.9 µM.

Turning to `CC[C@H]1CCCCN1C(=O)C[C@H](NC(=O)CCC(C)C)C(=O)N[C@@H](C)c1nc2c(F)cc(F)cc2[nH]1` [CEN-45, N—((S)-1-(((S)-1-(4,6-Difluoro-1H-benzo[d]Imidazol-2-yl)ethyl)amino)-4-((S)-2-ethylpiperidin-1-yl)-1,4-dioxobutan-2-yl)-4-methylpentanamide], the IC50 was found to be 4.1 µM.

Consider `CC1CC(C(=O)N[C@@H](CC(=O)N2CCC[C@@H]2c2ccccc2)C(=O)NC(C)c2nc3ccccc3[nH]2)C1` (stereo partly drawn) [CEN-46, N-((2S)-1-((1-(1H-Benzo[d]imidazol-2-yl)ethyl)amino)-1,4-dioxo-4-((R)-2-phenylpyrrolidin-1-yl)butan-2-yl)-3-methylcyclobutane-1-carboxamide], for which the IC50 came to 8.4 µM.

Take `CC(C)CCC(=O)N[C@@H](CC(=O)N1CCC[C@@H]1c1ccccc1)C(=O)NC(C)c1nc2ccccc2[nH]1` (stereo partly drawn) [CEN-47, N-((2S)-1-((1-(1H-Benzo[d]imidazol-2-yl)ethyl)amino)-1,4-dioxo-4-((R)-2-phenylpyrrolidin-1-yl)butan-2-yl)-4-methylpentanamide]: the IC50 was determined as 29.4 µM.

Regarding `CC(C)CCC(=O)N[C@@H](CC(=O)N1CCC[C@@H]1c1ccccc1)C(=O)N[C@@H](C)c1nc2ccccc2[nH]1` [CEN-48, N—((S)-1-(((S)-1-(1H-Benzo[d]imidazol-2-yl)ethyl)amino)-1,4-dioxo-4-((R)-2-phenylpyrrolidin-1-yl)butan-2-yl)-4-methylpentanamide], the IC50 was found to be 50 µM.

For the molecule `CC(C)CCC(=O)N[C@@H](CC(=O)N1CCC[C@@H]1c1ccccc1)C(=O)N[C@H](C)c1nc2ccccc2[nH]1` [CEN-49, N—((S)-1-(((R)-1-(1H-Benzo[d]imidazol-2-yl)ethyl)amino)-1,4-dioxo-4-((R)-2-phenylpyrrolidin-1-yl)butan-2-yl)-4-methylpentanamide], the IC50 came out at 50 µM.

With `C[C@H](NC(=O)[C@H](CC(=O)N1CCCC[C@@H]1C)NC(=O)OCc1ccccc1)c1nc2c(F)cccc2[nH]1` [CEN-50, Benzyl ((S)-1-(((S)-1-(4-Fluoro-1H-benzo[d]Imidazol-2-yl)ethyl)amino)-4-((S)-2-methylpiperidin-1-yl)-1,4-dioxobutan-2-yl)carbamate], the IC50 is 14.8 µM.

Consider `C[C@H](NC(=O)[C@H](CC(=O)N1CCCC1C1CC1)NC(=O)C1CC2(COC2)C1)c1nc2cccc(F)c2[nH]1` (stereo partly drawn) [CEN-51, N-((2S)-4-(2-Cyclopropylpyrrolidin-1-yl)-1-(((S)-1-(7-fluoro-1H-benzo[d]imidazol-2-yl)ethyl)amino)-1,4-dioxobutan-2-yl)-2-oxaspiro[3.3]heptane-6-carboxamide], for which the IC50 came out at 15 µM.

As for `Cc1cc(C(=O)N[C@@H](CC(=O)N2CCC[C@@H]2c2ccccc2)C(=O)NC(C)c2nc3ccccc3[nH]2)no1` (stereo partly drawn) [CEN-52, N-((2S)-1-((1-(1H-Benzo[d]imidazol-2-yl)ethyl)amino)-1,4-dioxo-4-((R)-2-phenylpyrrolidin-1-yl)butan-2-yl)-5-methylisoxazole-3-carboxamide], the IC50 came out at 7.5 µM.

Take `Cc1cc(C(=O)N[C@@H](CC(=O)N2CCC[C@@H]2c2ccccc2)C(=O)N[C@@H](C)c2nc3ccccc3[nH]2)no1` [CEN-53, N—((S)-1-(((S)-1-(1H-Benzo[d]imidazol-2-yl)ethyl)amino)-1,4-dioxo-4-((R)-2-phenylpyrrolidin-1-yl)butan-2-yl)-5-methylisoxazole-3-carboxamide]: the IC50 turned out to be 9.7 µM.

Take `C[C@H](NC(=O)[C@H](CC(=O)N1CCC[C@@H]1c1ccccc1)NC(=O)CCC(C)(C)C)c1nc2ccccc2[nH]1` [CEN-54, N—((S)-1-(((S)-1-(1H-Benzo[d]imidazol-2-yl)ethyl)amino)-1,4-dioxo-4-((R)-2-phenylpyrrolidin-1-yl)butan-2-yl)-4,4-dimethylpentanamide]: the IC50 turned out to be 16.6 µM.
